Source: patent US20250230193A1, “CYCLIC COMPOUND HAVING SELECTIVE KRAS INHIBITORY EFFECT ON HRAS AND NRAS” (CHUGAI SEIYAKU KABUSHIKI KAISHA, priority 2022, published 2025)

Legend:
[1] = target: GDP-bound HRAS wild-type protein (Homo sapiens, UniProt P01112); experiment: Binding to HRAS by surface plasmon resonance (SPR), Single Cycle Kinetics
[2] = target: GDP-bound NRAS wild-type protein (Homo sapiens, UniProt P01111); experiment: Binding to NRAS by surface plasmon resonance (SPR), Single Cycle Kinetics
Chain of GDP-bound NRAS wild-type protein (P01111 whole entry): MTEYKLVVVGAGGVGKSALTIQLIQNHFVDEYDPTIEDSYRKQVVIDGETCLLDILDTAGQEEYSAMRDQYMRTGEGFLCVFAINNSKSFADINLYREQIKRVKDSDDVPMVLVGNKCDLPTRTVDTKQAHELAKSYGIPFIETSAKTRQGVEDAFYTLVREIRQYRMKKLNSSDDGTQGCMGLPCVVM

[3] = KD ratio, GDP-bound HRAS wild-type vs GDP-bound KRAS wild-type, SPR
[4] = KD ratio, GDP-bound NRAS wild-type vs GDP-bound KRAS wild-type, SPR
[5] = SPR, GDP-bound wild-type proteins

Chain of GDP-bound HRAS wild-type protein (P01112 whole entry): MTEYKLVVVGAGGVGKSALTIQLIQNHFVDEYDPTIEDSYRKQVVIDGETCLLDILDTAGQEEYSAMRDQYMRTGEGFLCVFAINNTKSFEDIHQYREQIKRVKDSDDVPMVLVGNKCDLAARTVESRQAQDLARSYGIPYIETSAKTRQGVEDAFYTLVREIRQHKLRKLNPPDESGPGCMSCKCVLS

CCO[C@@H]1C[C@H]2C(=O)NC3(CCC3)C(=O)N(C)[C@@H](C3CCCC3)C(=O)N(C)[C@H](C(=O)N(C)C)CC(=O)N(C)[C@@H](CC)C(=O)N[C@@H]([C@@H](C)CC)C(=O)N(C)CC(=O)N(C)[C@H]3CCCCCN(C3=O)[C@@H](Cc3ccc(C(F)(F)F)cc3)C(=O)N(C)CC(=O)N[C@@H](CCc3ccc(C(F)(F)F)c(C)c3)C(=O)N2C1 (stereo in doubt) [PP0883]
HRAS/KRAS (ratio of KD value with respect to HRAS to KD value with respect to KRAS) [1, 3]: B (a compound having 3 or more and less than 10 is denoted as B)
NRAS/KRAS (ratio of KD value with respect to NRAS to KD value with respect to KRAS) [2, 4]: B (a compound having 3 or more and less than 10 is denoted as B)

CCO[C@@H]1C[C@H]2C(=O)N[C@@]3(C)CCCCCCC[C@@H](C(=O)N[C@@H]([C@@H](C)CC)C(=O)N(C)CC(=O)N(C)[C@H]4CCCCN(C4=O)[C@@H](Cc4ccc(C(F)(F)F)cc4)C(=O)N(C)CC(=O)N[C@@H](CCc4cc(F)c(C(F)(F)F)c(F)c4)C(=O)N2C1)N(C)C(=O)C[C@@H](C(=O)N1CCOCC1)N(C)C(=O)[C@H](C1CCCC1)N(C)C3=O [PP0993]
HRAS/KRAS (ratio of KD value with respect to HRAS to KD value with respect to KRAS) [1, 3]: B (a compound having 3 or more and less than 10 is denoted as B)
NRAS/KRAS (ratio of KD value with respect to NRAS to KD value with respect to KRAS) [2, 4]: B (a compound having 3 or more and less than 10 is denoted as B)

CCCN(C)C(=O)[C@@H]1CC(=O)N(C)[C@@H](C)C(=O)N[C@@H]([C@@H](C)CC)C(=O)N(C)CC(=O)N(C)[C@H]2C/C=C\CCN(C2=O)[C@@H](Cc2ccc(C(F)(F)F)cc2)C(=O)N(C)CC(=O)N[C@@H](CCc2cc(F)c(C(F)(F)F)c(F)c2)C(=O)N2C[C@H](F)C[C@H]2C(=O)NC2(CC(C)(C)C2)C(=O)N(C)[C@@H](C2CCCC2)C(=O)N1C [PP1663]
HRAS/KRAS (ratio of KD value for HRAS to KD value for KRAS) [1, 3]: A (a compound having 10 or more and less than 20 is denoted as A)
NRAS/KRAS (ratio of KD value for NRAS to KD value for KRAS) [2, 4]: AA (a compound having 20 or more is denoted as AA)

CCO[C@@H]1C[C@H]2C(=O)NC3(CCC3)C(=O)N(C)[C@@H](C3CCCC3)C(=O)N(C)[C@H](C(=O)N(C)CC)CC(=O)N(C)[C@@H](CC3CC3)C(=O)N[C@@H]([C@@H](C)CC)C(=O)N(C)CC(=O)N(C)[C@H]3C/C=C\CCN(C3=O)[C@@H](Cc3ccc(C(F)(F)F)cc3)C(=O)N(C)CC(=O)N[C@@H](CCc3cc(F)c(C(F)(F)F)c(F)c3)C(=O)N2C1 [PP1301]
HRAS/KRAS (ratio of KD value for GDP-bound HRAS wild-type protein to KD value for KRAS) ([1]; SPR, KD ratio class): A (a compound having 10 or more and less than 20 is denoted as A)
NRAS/KRAS (ratio of KD value for GDP-bound NRAS wild-type protein to KD value for KRAS) ([2]; SPR, KD ratio class): A (a compound having 10 or more and less than 20 is denoted as A)

CCO[C@@H]1C[C@H]2C(=O)NC3(CCC3)C(=O)N(C)[C@@H](C3CCCC3)C(=O)N(CC)[C@H](C(=O)N(C)C)CC(=O)N(C)[C@@H](CC)C(=O)N[C@@H]([C@@H](C)CC)C(=O)N(C)CC(=O)N(C)[C@H]3C/C=C\CCN(C3=O)[C@@H](Cc3ccc(C(F)(F)F)cc3)C(=O)N(C)CC(=O)N[C@@H](CCc3cc(F)c(C(F)(F)F)c(F)c3)C(=O)N2C1 [PP0980]
HRAS/KRAS (ratio of KD value with respect to HRAS to KD value with respect to KRAS) [1, 3]: B (a compound having 3 or more and less than 10 is denoted as B)
NRAS/KRAS (ratio of KD value with respect to NRAS to KD value with respect to KRAS) [2, 4]: A (a compound having 10 or more and less than 20 is denoted as A)

CCC[C@H]1C(=O)N[C@@H](C2CCCCC2)C(=O)N(C)CC(=O)N(C)[C@H]2C/C=C\CCN(C2=O)[C@@H](Cc2ccc(C(F)(F)F)cc2)C(=O)N(C)CC(=O)N[C@@H](CCc2ccc(C(F)(F)F)c(Cl)c2)C(=O)N2C[C@H](OCC)C[C@H]2C(=O)NC2(CC(C)(C)C2)C(=O)N(C)[C@@H](C2CCCC2)C(=O)N(C)[C@H](C(=O)N(C)C)CC(=O)N1C [PP2996]
HRAS/KRAS (ratio of KD value with respect to GDP-bound HRAS wild-type protein to KD value with respect to KRAS) [1, 5]: A (a compound having 10 or more and less than 20 is denoted as A)
NRAS/KRAS (ratio of KD value with respect to GDP-bound NRAS wild-type protein to KD value with respect to KRAS) [2, 5]: AA (a compound having 20 or more is denoted as AA)

CCC[C@H]1C(=O)N[C@@H]([C@@H](C)CC)C(=O)N(C)CC(=O)N(C)[C@H]2C/C=C\CCN(C2=O)[C@@H](Cc2ccc(C)cc2)C(=O)N(C)CC(=O)N[C@@H](CCc2cc(F)c(C(F)F)c(F)c2)C(=O)N2C[C@H](OCC)C[C@H]2C(=O)NC2(CC(C)(C)C2)C(=O)N(C)[C@@H](C2CCCC2)C(=O)N(C)[C@H](C(=O)N(C)C)CC(=O)N1C [PP2782]
HRAS/KRAS (ratio of KD value with respect to GDP-bound HRAS wild-type protein to KD value with respect to KRAS) ([1]; class symbols): A (a compound having 10 or more and less than 20 is denoted as A)
NRAS/KRAS (ratio of KD value with respect to GDP-bound NRAS wild-type protein to KD value with respect to KRAS) ([2]; class symbols): A (a compound having 10 or more and less than 20 is denoted as A)
